# Data reported in patent publication US6013649A, “Thiol sulfone metalloprotease inhibitors” (Monsanto Company, priority 1997, dated 2000).
# pIC50: −log10 of the molar value.
# How the values were obtained:
# hMMP 1 = target: T1, hMMP 1 (Homo sapiens, UniProt P03956); experiment: In vitro metalloprotease inhibition, fluorogenic peptide substrate (recombinant human MMP-1, APMA activated); assay type: biochemical; settings: human MMP-1, room temperature, pH 7.5, 4 μM substrate
# T1 construct: host or cells: transfected HT-1080 cells
# T1 sequence (P03956 100-469): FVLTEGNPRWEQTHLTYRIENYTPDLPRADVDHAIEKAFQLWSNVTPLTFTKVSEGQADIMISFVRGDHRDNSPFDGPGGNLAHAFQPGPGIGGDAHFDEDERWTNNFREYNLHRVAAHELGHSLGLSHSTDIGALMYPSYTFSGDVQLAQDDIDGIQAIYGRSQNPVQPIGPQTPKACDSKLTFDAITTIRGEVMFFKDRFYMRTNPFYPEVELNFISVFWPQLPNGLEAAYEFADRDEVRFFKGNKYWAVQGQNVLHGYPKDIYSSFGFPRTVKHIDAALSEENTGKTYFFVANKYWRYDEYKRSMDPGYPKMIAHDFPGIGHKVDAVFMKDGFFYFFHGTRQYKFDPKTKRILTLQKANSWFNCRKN
# Method: (§1) Briefly, 4-aminophenylmercuric acetate (APMA) or trypsin activated MMPs were incubated with various concentrations of the inhibitor compound at room temperature for 5 minutes (0.02% 2-mercaptoethanol added to buffer for thiol compounds with 5 minutes or overnight incubation).
# (§2) More specifically, recombinant human MMP-13 and MMP-1 enzymes were prepared in laboratories of the assignee. MMP-13 was expressed in baculovirus as a proenzyme, and purified first over a heparin agarose column and then over a chelating zinc chloride column. The proenzyme was activated by APMA for use in the assay. MMP-1 expressed in transfected HT-1080 cells was provided by Dr. Howard Welgus of Washington University, St. Louis, Mo. The enzyme was also activated using APMA and was then purified over a hydroxamic acid column.
# (§3) The enzyme substrate is a methoxycoumarin-containing polypeptide having the following sequence:
# (§4) MCA-ProLeuGlyLeuDpaAlaArgNH^2, wherein MCA is methoxycoumarin and Dpa is 3-(2,4--dinitrophenyl)-L-2,3-diaminopropionyl alanine.
# (§5) Assays were carried out at room temperature, and dimethyl sulfoxide (DMSO) at a final concentration of 1 percent was used to dissolve inhibitor compound.
# (§6) The assayed inhibitor compound in DMSO/buffer solution was compared to an equal amount of DMSO/buffer with no inhibitor as control using Microfluor™ White Plates (Dynatech). The inhibitor or control solution was maintained in the plate for 10 minutes and the substrate was added to provide a final concentration of 4 μM.
# (§7) Inhibition was measured as a reduction in fluorescent intensity as a function of inhibitor concentration, using a Perkin Elmer L550 plate reader. The IC50 values were calculated from those values.
# hMMP 13 = target: T2, hMMP 13 (Homo sapiens, UniProt P45452); experiment: In vitro metalloprotease inhibition, fluorogenic peptide substrate (recombinant human MMP-13, APMA activated); assay type: biochemical; settings: recombinant human MMP-13, room temperature, pH 7.5, 4 μM substrate
# T2 construct: made in house
# Method: as §1, §2, §3, §4, §5, §6, §7
# [1] = tested on: neovascularization of the corneal stroma; experiment: In vivo angiogenesis assay (corneal micropocket assay, bFGF pellet); design: species or system mouse (C57Bl/6 female); settings: 50 mg/kg bid, po, day five, mouse cornea
# Method: The study of angiogenesis depends on a reliable and reproducible model for the stimulation and inhibition of a neovascular response. The corneal micropocket assay provides such a model of angiogenesis in the cornea of a mouse. See, A Model of Angiogenesis in the Mouse Cornea; Kenyon, BM, et al., Investigative Ophthalmology & Visual Science, July 1996, Vol. 37, No. 8.
# In this assay, uniformly sized Hydron™ pellets containing bFGF and sucralfate were prepared and surgically implanted into the stroma mouse cornea adjacent to the temporal limbus. […]
# Mice were dosed on a daily basis for the duration of the assay. […] At day five, the degree of angiogenic inhibition was scored by viewing the neovascular progression with a slit lamp microscope.
# The mice were anesthetized and the studied eye was once again proptosed. The maximum vessel length of neovascularization, extending from the limbal vascular plexus toward the pellet was measured. In addition, the contiguous circumferential zone of neovascularization was measured as clock hours, where 30 degrees of arc equals one clock hour. The area of angiogenesis was calculated as follows. […]
# The studied mice were thereafter compared to control mice and the difference in the area of neovascularization was recorded.
Structure (SMILES),pIC50 (hMMP 1),pIC50 (hMMP 13),inhibition (difference in area of neovascularization vs control mice) [1] [%]
"O=S(=O)(c1ccc(Sc2ccccc2)cc1)[C@@H]1CCC[C@@H](S)C1 (relative stereo) [Example 38, (R,S)trans-3-[(phenylthio)phenylsulfonyl]cyclohexanethiol]",< 5.00,–,–
"COc1ccc(S(=O)(=O)C[C@@H](C)CS)cc1 [Example 3, 3-[(4-methoxyphenyl)sulfonyl]-2(S)-methylpropanethiol]",< 5.00,–,–
"O=S(=O)(CCCS)c1ccc(OCCCc2ccccc2)cc1 [Example 4, 3-[(4-{3-phenylpropyloxy)phenyl}sulfonyl]-propanethiol]",< 5.00,6.00,–
CC(C)(C)OC(=O)COc1ccc(S(=O)(=O)CCCS)cc1 [Example 5],< 5.00,6.40,–
O=C(O)COc1ccc(S(=O)(=O)CCCS)cc1 [Example 6],< 5.00,< 5.00,–
"CCCC[C@]1(S(=O)(=O)c2ccc(OC)cc2)CCC[C@@H](S)C1 [Example 8, (R,S)3-butyl-3-[(4-methoxyphenyl)sulfonyl]cyclohexanethiol]",< 5.00,5.89,–
COc1ccc(S(=O)(=O)C2CCC(S)C2)cc1 (stereo not drawn) [Example 9],–,6.30,–
"COc1ccc(CS(=O)(=O)CCCS)cc1 [Example 11, (R,S)-3-[(4-methoxybenzyl)-sulfonyl]propane thiol]",< 5.00,< 5.00,–
"COc1ccc(S(=O)(=O)CCCS)cc1 [Example 13, 3-[(4-methoxyphenyl)sulfonyl]propane-1-thiol]",5.10,7.15,–
"COc1ccc(S(=O)(=O)CC(C)(C)CS)cc1 [Example 15, 3-[(4-methoxyphenyl)sulfonyl]-2,2-dimethylpropane-1-thiol]",–,6.15,–
"CCCCCCCCCC(CCS)S(=O)(=O)c1ccc(OC)cc1 (stereo not drawn) [Example 17, 3-[(4-methoxyphenyl)sulfonyl]-dodecane-1-thiol]",< 5.00,6.68,–
"COc1ccc(S(=O)(=O)CCCCS)cc1 [Example 25, 4-[(4--methoxyphenyl)sulfonyl]butane-1-thiol]",< 5.00,6.15,–
"CCCCOc1ccc(S(=O)(=O)CCCS)cc1 [Example 27, 3-[(4-butoxyphenyl)sulfonyl]propane-1-thiol]",< 5.00,7.40,–
"CCCCOc1ccc(S(=O)(=O)C(CCS)Cc2ccccc2)cc1 (stereo not drawn) [Example 28, 3-[(4-butoxyphenyl)sulfonyl]-4-phenylbutane-1-thiol]",5.05,8.82,–
"CCCOc1ccc(S(=O)(=O)CCCS)cc1 [Example 29, 3-[(4-propoxyphenyl)sulfonyl]propanethiol]",5.00,7.26,–
"O=S(=O)(CCCS)c1ccccc1 [Example 30, 3-(phenylsulfonyl)propane-1-thiol]",< 5.00,6.05,–
"COc1ccc(S(=O)(=O)CCS)cc1 [Example 34, 1-[(4-methoxyphenyl)sulfonyl]ethane-2-thiol]",5.10,6.70,–
"O=S(=O)(CCCS)c1ccc(-c2ccccc2)cc1 [Example 37, 3-[(4-phenyl)phenylsulfonyl]propane-1-thiol]",< 5.00,6.77,–

# The remaining compounds from weak to strong by pIC50 (hMMP 1), led by results:
pIC50 (hMMP 1),pIC50 (hMMP 13),Structure (SMILES),inhibition (difference in area of neovascularization vs control mice) [1] [%]
5.10,7.48,"COc1ccc(S(=O)(=O)CCC(C)S)cc1 (racemic) [Example 2, (R,S)-4-[(4-methoxyphenyl)-sulfonyl]butane-2-thiol]",–
5.15,6.70,"COc1ccc(S(=O)(=O)C(C)CCS)cc1 (stereo not drawn) [Example 19, 3-[(4-methoxyphenyl)sulfonyl]-butane-1-thiol]",–
5.19,6.72,"COc1ccc(S(=O)(=O)C[C@H](C)CS)cc1 [Example 14, 3-[(4-methoxyphenyl)sulfonyl]-2R-methylpropane-1-thiol]",–
5.32,7.46,CNC(=O)CC(CCS)S(=O)(=O)c1ccc(OC)cc1 (stereo not drawn) [Example 31],–
5.40,6.40,"COc1ccc(S(=O)(=O)CC(C)S)cc1 (racemic) [Example 1, (R,S)1-[(4-methoxyphenyl)-sulfonyl]propane-2-thiol]",–
5.40,7.82,"COC(=O)C(S)CCS(=O)(=O)c1ccc(OC)cc1 (racemic) [Example 10, (R,S)-Methyl-4-[(4-methoxyphenyl)sulfonyl]-2-mercaptobutanoate]",–
5.40,7.15,"COc1ccc(S(=O)(=O)CC(CS)NC(C)=O)cc1 (stereo not drawn) [Example 32, N-[1-(mercaptomethyl)-2-[(4-methoxyphenyl)sulfonyl)ethyl)acetamide]",–
5.46,7.32,"COc1ccc(S(=O)(=O)CCC(S)c2ccccc2)cc1 (stereo not drawn) [Example 24, 3-[(4-methoxyphenyl)sulfonyl]-1-phenylpropane-1-thiol]",–
5.62,9.22,"O=S(=O)(CCCS)c1ccc(Oc2ccccc2)cc1 [Example 36, 3-[(4-phenoxy)phenylsulfonyl]propane-1-thiol]",–
5.82,8.15,"CCCC(CCS)S(=O)(=O)c1ccc(OC)cc1 (stereo not drawn) [Example 20, 3-[(4-methoxyphenyl)sulfonyl]hexane-1-thiol]",–
5.96,9.30,"CCCCCC(CCS)S(=O)(=O)c1ccc(OC)cc1 (stereo not drawn) [Example 22, 3-[(4-methoxyphenyl)sulfonyl]-octane-1-thiol]",–
6.00,–,"COc1ccc(S(=O)(=O)[C@@H]2CCC[C@@H](S)C2)cc1 (relative stereo) [Example 7, (R,S)trans-3-[(4-methoxyphenyl)sulfonyl]cyclohexanethiol]",–
6.05,7.38,"COc1ccc(S(=O)(=O)CC(CS)NC(=O)CNC(=O)OCc2ccccc2)cc1 (racemic) [Example 33, 2-R,S-(N-carbobenzyloxy-glycyl)amino-3-(4-methoxybenzenesulfonyl)propanethiol]",–
6.22,8.40,"CCC(CCS)S(=O)(=O)c1ccc(OC)cc1 (stereo not drawn) [Example 16, 3-[(4-methoxyphenyl)sulfonyl]-pentane-1-thiol]",–
6.43,9.70,O=C(NCCN1CCOCC1)C(S)CCS(=O)(=O)c1ccc(Oc2ccccc2)cc1 (stereo not drawn) [Example 39],51
7.22,–,"COc1ccc(S(=O)(=O)C(CCS)Cc2ccccc2)cc1 (stereo not drawn) [Example 18, 3-[(4-methoxyphenyl)sulfonyl]-4-phenylbutane-1-thiol]",–
